Test results published in US4452778A, “Synergistic antibacterial compositions and method of treatment of infections caused by multiple antibiotic-resistant organisms” (Eli Lilly and Company, priority 1981, dated 1984).
Like-named read-outs stand apart in the source and are kept apart here.

Assays:
Proteus rettgeri = assay: Checkerboard broth dilution synergy study (mic); type: cell-based; details: Table II, strain 65
Proteus mirabilis = assay: Checkerboard broth dilution synergy study (mic); type: cell-based; details: Table II, strain Allen
E. coli = assay: Checkerboard broth dilution synergy study (mic); type: cell-based; details: Table II; for MIC: Escherichia coli, read-out: mic, drug alone
Pseudomonas maltophilia = assay: Checkerboard broth dilution synergy study (mic); type: cell-based; details: Table II; for MIC: Stenotrophomonas maltophilia, read-out: mic, drug alone
E. cloacae = assay: Checkerboard broth dilution synergy study (mic); type: cell-based; details: Table II; for MIC: Enterobacter cloacae, read-out: mic, drug alone
Serratia marcescens = assay: Checkerboard broth dilution synergy study (mic); type: cell-based; details: Table II; for MIC: Serratia marcescens, read-out: mic, drug alone
Proteus vulgaris = assay: Checkerboard broth dilution synergy study (mic); type: cell-based; details: Table II; for MIC: Proteus vulgaris, read-out: mic, drug alone
[1] = single 1 mg/kg (i.m.), healthy volunteers; cited from earlier work
Klebsiella pneumoniae = assay: Checkerboard broth dilution synergy study (mic); type: cell-based; details: Table II; for MIC: Klebsiella pneumoniae, read-out: mic, drug alone
Acinetobacter sp. = assay: Checkerboard broth dilution synergy study (mic); type: cell-based; details: Table II; for MIC: Acinetobacter, read-out: mic, drug alone
Pseudomonas aeruginosa = assay: Checkerboard broth dilution synergy study (mic); type: cell-based; details: Table II; for MIC: Pseudomonas aeruginosa, read-out: mic, drug alone

SMILES: NC[C@H]1O[C@H](O[C@H]2[C@H](O)[C@@H](O[C@H]3O[C@H](CO)[C@@H](O)[C@H](N)[C@H]3O)[C@H](N)C[C@@H]2N)[C@H](N)C[C@@H]1O [tobramycin]
- MIC (Proteus rettgeri; Providencia rettgeri, read-out: mic, drug alone): 64 µg/mL
- mic of each drug in combination I + T (Proteus rettgeri): 1 µg/mL
- MIC (Proteus mirabilis; Proteus mirabilis, read-out: mic, drug alone): 32 µg/mL
- mic of each drug in combination I + T (Proteus mirabilis): 1 µg/mL
- MIC (E. coli; strain 46-2): > 64 µg/mL
- MIC (E. coli; strain 77-3): 64 µg/mL
- MIC (E. coli; strain 136-3): 64 µg/mL
- MIC (E. coli; strain 1260): > 64 µg/mL
- MIC (E. coli; strain 1262): 16 µg/mL
- MIC (E. coli; strain Briley): 4 µg/mL
- MIC (E. coli; strain Dill): > 64 µg/mL
- mic of each drug in combination I + T (E. coli; strain 46-2): 4 µg/mL
- mic of each drug in combination I + T (E. coli; strain 77-3): 0.25 µg/mL
- mic of each drug in combination I + T (E. coli; strain 136-3): 4 µg/mL
- mic of each drug in combination I + T (E. coli; strain 1253): 4 µg/mL
- mic of each drug in combination I + T (E. coli; strain 1260): 0.5 µg/mL
- mic of each drug in combination I + T (E. coli; strain 1262): 8 µg/mL
- mic of each drug in combination I + T (E. coli; strain 1415): 8 µg/mL
- mic of each drug in combination I + T (E. coli; strain Briley): 8 µg/mL
- mic of each drug in combination I + T (E. coli; strain Dill): 4 µg/mL
- MIC (Pseudomonas maltophilia; strain 10): 64 µg/mL
- MIC (Pseudomonas maltophilia; strain 11): 4 µg/mL
- MIC (Pseudomonas maltophilia; strain 505): 32 µg/mL
- mic of each drug in combination I + T (Pseudomonas maltophilia; strain 10): 8 µg/mL
- mic of each drug in combination I + T (Pseudomonas maltophilia; strain 11): 2 µg/mL
- mic of each drug in combination I + T (Pseudomonas maltophilia; strain 505): 0.5 µg/mL
- MIC (E. cloacae; strain 1246): 16 µg/mL
- MIC (E. cloacae; strain 1253): 32 µg/mL
- MIC (E. cloacae; strain 1415): 32 µg/mL
- MIC (E. cloacae; strain B293): > 64 µg/mL
- mic of each drug in combination I + T (E. cloacae; strain 1246): 0.5 µg/mL
- mic of each drug in combination I + T (E. cloacae; strain 1253): 2 µg/mL
- mic of each drug in combination I + T (E. cloacae; strain 1415): < 0.015 µg/mL
- mic of each drug in combination I + T (E. cloacae; strain B293): 8 µg/mL
- MIC (Serratia marcescens; strain 100): 16 µg/mL
- MIC (Serratia marcescens; strain 302-2): 16 µg/mL
- MIC (Serratia marcescens; strain 796): 64 µg/mL
- MIC (Serratia marcescens; strain 14142): > 64 µg/mL
- MIC (Serratia marcescens; strain Townsend): 32 µg/mL
- mic of each drug in combination I + T (Serratia marcescens; strain 100): 8 µg/mL
- mic of each drug in combination I + T (Serratia marcescens; strain 302-2): 1 µg/mL
- mic of each drug in combination I + T (Serratia marcescens; strain 796): 16 µg/mL
- mic of each drug in combination I + T (Serratia marcescens; strain 14142): 4 µg/mL
- mic of each drug in combination I + T (Serratia marcescens; strain Townsend): 0.5 µg/mL
- MIC (Proteus vulgaris; strain 363): 64 µg/mL
- MIC (Proteus vulgaris; strain Shide): 32 µg/mL
- mic of each drug in combination I + T (Proteus vulgaris; strain 363): 1 µg/mL
- mic of each drug in combination I + T (Proteus vulgaris; strain Shide): 1 µg/mL
- peak serum concentrations [1]: 4.4 µg/mL
- MIC (Klebsiella pneumoniae; strain 130): 16 µg/mL
- MIC (Klebsiella pneumoniae; strain 214-1): 32 µg/mL
- MIC (Klebsiella pneumoniae; strain 463): 16 µg/mL
- MIC (Klebsiella pneumoniae; strain 512): > 64 µg/mL
- MIC (Klebsiella pneumoniae; strain 933): 32 µg/mL
- MIC (Klebsiella pneumoniae; strain 1204-2): > 64 µg/mL
- mic of each drug in combination I + T (Klebsiella pneumoniae; strain 130): 0.5 µg/mL
- mic of each drug in combination I + T (Klebsiella pneumoniae; strain 214-1): 0.03 µg/mL
- mic of each drug in combination I + T (Klebsiella pneumoniae; strain 463): < 0.015 µg/mL
- mic of each drug in combination I + T (Klebsiella pneumoniae; strain 512): 0.06 µg/mL
- mic of each drug in combination I + T (Klebsiella pneumoniae; strain 933): 0.5 µg/mL
- mic of each drug in combination I + T (Klebsiella pneumoniae; strain 1204-2): 0.03 µg/mL
- MIC (Acinetobacter sp.; strain 28-1): 0.5 µg/mL
- MIC (Acinetobacter sp.; strain 28-2): 4 µg/mL
- MIC (Acinetobacter sp.; strain 106): 1 µg/mL
- MIC (Acinetobacter sp.; strain 107): 4 µg/mL
- MIC (Acinetobacter sp.; strain 109): 1 µg/mL
- mic of each drug in combination I + T (Acinetobacter sp.; strain 28-1): 0.5 µg/mL
- mic of each drug in combination I + T (Acinetobacter sp.; strain 28-2): 0.5 µg/mL
- mic of each drug in combination I + T (Acinetobacter sp.; strain 106): 0.5 µg/mL
- mic of each drug in combination I + T (Acinetobacter sp.; strain 107): 0.5 µg/mL
- mic of each drug in combination I + T (Acinetobacter sp.; strain 109): 0.5 µg/mL
- MIC (Pseudomonas aeruginosa; strain 84): 8 µg/mL
- MIC (Pseudomonas aeruginosa; strain 366): 4 µg/mL
- MIC (Pseudomonas aeruginosa; strain 424): 64 µg/mL
- MIC (Pseudomonas aeruginosa; strain 447): 64 µg/mL
- MIC (Pseudomonas aeruginosa; strain 1484): 64 µg/mL
- MIC (Pseudomonas aeruginosa; strain Davis): > 64 µg/mL
- mic of each drug in combination I + T (Pseudomonas aeruginosa; strain 84): 1 µg/mL
- mic of each drug in combination I + T (Pseudomonas aeruginosa; strain 366): 2 µg/mL
- mic of each drug in combination I + T (Pseudomonas aeruginosa; strain 424): 0.5 µg/mL
- mic of each drug in combination I + T (Pseudomonas aeruginosa; strain 447): < 0.5 µg/mL
- mic of each drug in combination I + T (Pseudomonas aeruginosa; strain 1484): 2 µg/mL
- mic of each drug in combination I + T (Pseudomonas aeruginosa; strain Davis): 1 µg/mL
